# Experimental data: ChEMBL document CHEMBL5543096 (J Med Chem, 2024)
# Activity calls are given as the source filed them. No cut-off for these calls is given here.
# Assays:
# [1] = Toxicity in chronic restraint stress-induced depressive C57BL/6J mouse model assessed as decrease in percentage of spontaneous alternation at 4 mg/kg,ip administration by Y-maze test; assay type: organism-based; details: in vivo
# [2] = Half life in Sprague-Dawley rat at 0.3 mg/kg,ip measured at 0.05 to 24 hrs of post administration by LC-MS/MS analysis; assay type: ADME, organism-based; details: in vivo, time 0.05-24 hrs
# [3] = AUC (0 to last) in Sprague-Dawley rat at 0.3 mg/kg,ip measured at 0.05 to 24 hrs of post administration by LC-MS/MS analysis; assay type: ADME, organism-based; details: in vivo, time 0.05-24 hrs
# Mus musculus [4] = assay: Antidepressant activity in chronic restraint stress-induced depressive C57BL/6J mouse model assessed as change in total distance traveled at 25 to 300 microg/kg,ip administrated on day 29 to 33 measured on day 34 by open field test; assay type: functional, organism-based; details: dose 25-300 µg/kg, time 6.0 day
# Mus musculus [5] = assay: Antidepressant activity in Reserpine-induced depressive C57BL/6J mouse model assessed as decrease in immobility time at 0.1 to 0.3 mg/kg,ip administration measured after 7 days by tail suspension test; assay type: functional, organism-based; details: dose 0.1-0.3 mg/kg, time 7.0 day
# [6] = Tmax in Sprague-Dawley rat at 0.3 mg/kg,ip measured at 0.05 to 24 hrs of post administration by LC-MS/MS analysis; assay type: ADME, organism-based; details: in vivo, time 0.05-24 hrs
# Mus musculus [7] = assay: Antidepressant activity in chronic restraint stress-induced depressive C57BL/6J mouse model assessed as reduction in immobility time at 100 to 300 microg/kg,ip administrated on day 29 to 33 measured on day 35 by forced swimming test; assay type: functional, organism-based; details: dose 100-300 µg/kg, time 7.0 day
# [8] = Toxicity in chronic restraint stress-induced depressive C57BL/6J mouse model assessed as decrease in percentage of spontaneous alternation at 2 mg/kg,ip administration by Y-maze test; assay type: organism-based; details: in vivo
# Mus musculus [9] = assay: Antidepressant activity in Reserpine-induced depressive ICR mouse model assessed as reduction in weight loss at 25 to 300 microg/kg,ip administrated on day 4 to 8 for 5 days; assay type: functional, organism-based; details: dose 25-300 µg/kg, time 5.0 day
# [10] = Toxicity in chronic restraint stress-induced depressive C57BL/6J mouse model assessed as lung pathological change at 25 to 300 microg/kg,ip administrated on day 29 to 33 measured on day 36 by hematoxylin and eosin staining based microscopic analysis; assay type: tissue-based; details: in vivo, 192 h, dose 25-300 µg/kg, time 8 day
# [11] = MRT (0 to last) in Sprague-Dawley rat at 0.3 mg/kg,iv measured at 0.05 to 24 hrs of post administration by LC-MS/MS analysis; assay type: ADME, organism-based; details: in vivo, time 0.05-24 hrs
# [12] = Toxicity in chronic restraint stress-induced depressive C57BL/6J mouse model assessed as liver pathological change at 25 to 300 microg/kg,ip administrated on day 29 to 33 measured on day 36 by hematoxylin and eosin staining based microscopic analysis; assay type: tissue-based; details: in vivo, 192 h, dose 25-300 µg/kg, time 8 day
# Mus musculus [13] = assay: Antidepressant activity in chronic restraint stress-induced depressive C57BL/6J mouse model assessed as increase in hippocampal BDNF mRNA expression at 0.3 mg/kg,ip administration measured after 8 hrs by qRT-PCR analysis; assay type: functional, organism-based
# [14] = MRT (0 to infinity) in Sprague-Dawley rat at 0.3 mg/kg,ip measured at 0.05 to 24 hrs of post administration by LC-MS/MS analysis; assay type: ADME, organism-based; details: in vivo, time 0.05-24 hrs
# [15] = Toxicity in chronic restraint stress-induced depressive C57BL/6J mouse model assessed as memory impairment at 4 mg/kg,ip administration and measured after 4 hrs by novel object recognition test; assay type: organism-based; details: in vivo
# [16] = Cmax in Sprague-Dawley rat at 0.3 mg/kg,ip measured at 0.05 to 24 hrs of post administration by LC-MS/MS analysis; assay type: ADME, organism-based; details: in vivo, time 0.05-24 hrs
# [17] = AUC (0 to infinity) in Sprague-Dawley rat at 0.3 mg/kg,iv measured at 0.05 to 24 hrs of post administration by LC-MS/MS analysis; assay type: ADME, organism-based; details: in vivo, time 0.05-24 hrs
# Mus musculus [18] = assay: Antidepressant activity in chronic restraint stress-induced depressive C57BL/6J mouse model assessed as increase in hippocampal BDNF protein expression at 0.3 mg/kg,ip administration measured after 24 hrs by Western blotting analysis; assay type: functional, organism-based
# [19] = Toxicity in chronic restraint stress-induced depressive C57BL/6J mouse model assessed as kidney pathological change at 25 to 300 microg/kg,ip administrated on day 29 to 33 measured on day 36 by hematoxylin and eosin staining based microscopic analysis; assay type: tissue-based; details: in vivo, 192 h, dose 25-300 µg/kg, time 8 day
# [20] = AUC (0 to last) in Sprague-Dawley rat at 0.3 mg/kg,iv measured at 0.05 to 24 hrs of post administration by LC-MS/MS analysis; assay type: ADME, organism-based; details: in vivo, time 0.05-24 hrs
# [21] = Bioavailability in Sprague-Dawley rat at 0.3 mg/kg,ip measured at 0.05 to 24 hrs of post administration by LC-MS/MS analysis; assay type: ADME, organism-based; details: in vivo, time 0.05-24 hrs
# [22] = Toxicity in chronic restraint stress-induced depressive C57BL/6J mouse model assessed as heart pathological change at 25 to 300 microg/kg,ip administrated on day 29 to 33 measured on day 36 by hematoxylin and eosin staining based microscopic analysis; assay type: tissue-based; details: in vivo, 192 h, dose 25-300 µg/kg, time 8 day
# Mus musculus [23] = assay: Antidepressant activity in Reserpine-induced depressive ICR mouse model assessed as decrease in immobility time at ip administrated on day 4 to 8 measured on day 10 by forced swimming test; assay type: functional, organism-based; details: time 7.0 day
# Mus musculus [24] = assay: Antidepressant activity in chronic restraint stress-induced depressive C57BL/6J mouse model assessed as increase in hippocampal BDNF mRNA expression at 0.3 mg/kg,ip administration measured after 24 hrs by qRT-PCR analysis; assay type: functional, organism-based
# Mus musculus [25] = assay: Antidepressant activity in Reserpine-induced depressive C57BL/6J mouse model assessed as decrease in immobility time at 0.1 to 1 mg/kg,ip administration measured after 30 mins by tail suspension test; assay type: functional, organism-based; details: dose 0.1-1 mg/kg
# [26] = molecular target: T1, Muscarinic acetylcholine receptor M1 (Homo sapiens, UniProt P11229); assay: Antagonist activity at human muscarinic M1 receptor expressed in CHO cells incubated for 10 mins in presence of acetylcholine by inositol 1-phosphate accumulation assay; assay type: functional, cell-based
# T1 sequence (P11229 whole entry): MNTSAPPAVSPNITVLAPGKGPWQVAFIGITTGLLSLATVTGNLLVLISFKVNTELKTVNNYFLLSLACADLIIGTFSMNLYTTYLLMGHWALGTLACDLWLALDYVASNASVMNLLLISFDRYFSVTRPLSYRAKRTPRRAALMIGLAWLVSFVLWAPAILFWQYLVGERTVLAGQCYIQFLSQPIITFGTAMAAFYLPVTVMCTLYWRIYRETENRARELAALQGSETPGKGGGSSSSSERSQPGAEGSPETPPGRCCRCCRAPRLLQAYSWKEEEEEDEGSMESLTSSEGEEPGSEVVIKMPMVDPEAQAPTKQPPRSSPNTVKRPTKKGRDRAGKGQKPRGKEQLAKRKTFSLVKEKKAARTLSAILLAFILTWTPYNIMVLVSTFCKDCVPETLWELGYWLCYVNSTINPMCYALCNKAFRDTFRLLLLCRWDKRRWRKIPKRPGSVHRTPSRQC
compound,measurement,setting,value
CN1[C@@H]2C[C@@H](OC(=O)[C@@](F)(CO)c3ccccc3)C[C@H]1[C@@H]1O[C@@H]12,Activity,[1],Toxic
same,half-life,[2],16.6 min
same,AUC(0-t),[3],24.2 ng·h/mL
same,Activity,Mus musculus [4],inactive
same,Activity,Mus musculus [5],Active
same,Tmax,[6],12.5 min
same,Activity,Mus musculus [7],Active
same,Activity,[8],Non-Toxic
same,Activity,Mus musculus [9],Active
same,Activity,[10],Non-Toxic
same,MRT last,[11],13.8 min
same,Activity,[12],Non-Toxic
same,Activity,Mus musculus [13],Active
same,MRT inf,[14],27.3 min
same,Activity,[15],Toxic
same,Cmax,[16],41.9 ng/mL
same,AUC(0-inf),[17],71.4 ng·h/mL
same,Activity,Mus musculus [18],inactive
same,Activity,[19],Non-Toxic
same,AUC(0-t),[20],68.3 ng·h/mL
same,bioavailability,[21],35.5%
same,Activity,[22],Non-Toxic
same,Activity,Mus musculus [23],Dose-Dependent Effect
same,Activity,Mus musculus [24],inactive
same,Activity,Mus musculus [25],Active
same,IC50,[26],14.6 nM
